Measurements taken from patent US10238670B2, “9-aminomethyl minocycline compounds and methods of use thereof in urinary tract infection (UTI) treatment” (Paratek Pharmaceuticals, Inc., priority 2016, dated 2019).
Like-named read-outs stand apart in the source and are kept apart here.

Test: Phase 1b study in female adults with cystitis, urine PK
Format: in vivo, human
Conditions: for Ae0-24 (amount excreted in urine): mean; for clearance: female, human, urine and plasma
Method: Urine was collected, the volume recorded, and analyzed for Compound 1 concentration at the following times: • Day 1 to 2: pooled total urine 0 to 4, 4 to 8, 8 to 12, and 12-24 hours after the t=0 h dose; Collection of the 12 to 24 h sample should be completed prior to the t=24 h dose on Day 2; • Day 5 to 6: pooled total urine 0 to 4, 4 to 8, 8 to 12, and 12-24 hours after the t=96 h dose;
Urine was pooled during the intervals above. At the end of each interval, the time and total volume were recorded.
Compound 1 urine concentration data was used to determine the amount excreted in a dosing interval, the urinary excretion rate, and, in conjunction with the plasma concentration data, to estimate the renal clearance (CLr) of Compound 1.
Urine was collected and the volume recorded at the following times: • Day 1 to 2: pooled total urine 0 to 4, 4 to 8, 8 to 12, and 12-24 hours after the t=0 h dose; • Day 5 to 6: pooled total urine 0 to 4, 4 to 8, 8 to 12, and 12-24 hours after the t=96 h dose;
At the end of each collection time period the pooled urine was frozen at −20° C. or colder and the total volume of urine collected for the time period was recorded. The samples were kept frozen at −20° C. or colder pending shipment to the bioanalytical laboratory.
The urine sample volume, its Compound 1 concentration, the amount of Compound 1 excreted in the urine (product of volume and concentration) over a dosing interval, the urinary excretion rates and renal clearance (CLr) of Compound 1 following the initial Day 1 and final Day 5 doses were summarized by the treatment groups.

[1] = Day 1, 0-4 hour Post t = 0, IV_PO300
[2] = Day 1, 0-4 hour Post t = 0, PO300
[3] = Day 1, 0-4 hour Post t = 0, PO450
[4] = Day 1, 4-8 hour Post t = 0, IV_PO300
[5] = Day 1, 4-8 hour Post t = 0, PO300
[6] = Day 1, 4-8 hour Post t = 0, PO450
[7] = Day 1, 8-12 hour Post t = 0, IV_PO300
[8] = Day 1, 8-12 hour Post t = 0, PO300
[9] = Day 1, 8-12 hour Post t = 0, PO450
[10] = Day 1-2, 12-24 hour Post t = 0, IV_PO300
[11] = Day 1-2, 12-24 hour Post t = 0, PO300
[12] = Day 1-2, 12-24 hour Post t = 0, PO450
[13] = Day 1, 200 mg IV, 300 mg po (n = 11)
[14] = Day 5, 0-4 hour Post t = 96, IV_PO300
[15] = Day 5, 0-4 hour Post t = 96, PO300
[16] = Day 5, 0-4 hour Post t = 96, PO450
[17] = Day 5, 4-8 hour Post t = 96, IV_PO300
[18] = Day 5, 4-8 hour Post t = 96, PO300
[19] = Day 5, 4-8 hour Post t = 96, PO450
[20] = Day 5, 8-12 hour Post t = 96, IV_PO300
[21] = Day 5, 8-12 hour Post t = 96, PO300
[22] = Day 5, 8-12 hour Post t = 96, PO450
[23] = Day 5-6, 12-24 hour Post t = 96, IV_PO300
[24] = Day 5-6, 12-24 hour Post t = 96, PO300
[25] = Day 5-6, 12-24 hour Post t = 96, PO450
[26] = Day 5, 200 mg IV, 300 mg po (n = 11)

With CN(C)c1cc(CNCC(C)(C)C)c(O)c2c1C[C@H]1C[C@H]3[C@H](N(C)C)C(O)=C(C(N)=O)C(=O)[C@@]3(O)C(O)=C1C2=O [Compound 1, 9-[(2,2-dimethyl-propylamino)-methyl]-minocycline] the “Urine Concentration, Mean” value [1] was 65360.0 ng/mL, the “Urine Concentration, Median” value [1] was 55000.0 ng/mL and the “Urine Concentration, Mean” value [2] was 14003.0 ng/mL. For the same molecule, the “Urine Concentration, Median” value [2] was 14020.0 ng/mL, the “Urine Concentration, Mean” value [3] was 23008.0 ng/mL and the “Urine Concentration, Median” value [3] was 10500.0 ng/mL. The “Urine Concentration, Mean” value [4] was 43548.2 ng/mL, the “Urine Concentration, Median” value [4] was 40900.0 ng/mL and the “Urine Concentration, Mean” value [5] was 19088.9 ng/mL. The “Urine Concentration, Median” value [5] was 16800.0 ng/mL, the “Urine Concentration, Mean” value [6] was 20537.8 ng/mL and the “Urine Concentration, Median” value [6] was 15500.0 ng/mL. The “Urine Concentration, Mean” value [7] was 32407.3 ng/mL, the “Urine Concentration, Median” value [7] was 33700.0 ng/mL and the “Urine Concentration, Mean” value [8] was 19981.0 ng/mL. The “Urine Concentration, Median” value [8] was 13650.0 ng/mL, the “Urine Concentration, Mean” value [9] was 11699.0 ng/mL and the “Urine Concentration, Median” value [9] was 8995.0 ng/mL. For the same molecule, the “Urine Concentration, Mean” value [10] was 22410.0 ng/mL, the “Urine Concentration, Median” value [10] was 19300.0 ng/mL and the “Urine Concentration, Mean” value [11] was 20772.0 ng/mL. For the same molecule, the “Urine Concentration, Median” value [11] was 21300.0 ng/mL, the “Urine Concentration, Mean” value [12] was 25713.0 ng/mL and the “Urine Concentration, Median” value [12] was 19550.0 ng/mL. The “fe0-24 [dose absorbed]” value [13] was 20.4%, the “fe0-24 [dose administered]” value [13] was 20.4% and the “Ae0-24 (amount excreted in urine)” value (Day 1, 200 mg IV, 300 mg po (n = 11), total dose 200 IV) was 40.70 mg. The “fe0-24 [dose absorbed]” value (Day 1, 300 mg po (n = 10)) was 18.7%, the “fe0-24 [dose administered]” value (Day 1, 300 mg po (n = 10)) was 6.5% and the “Ae0-24 (amount excreted in urine)” value (Day 1, 300 mg po (n = 10), total dose 600 po) was 39.24 mg. For the same molecule, the “fe0-24 [dose absorbed]” value (Day 1, 450 mg po (n = 10)) was 11.4%, the “fe0-24 [dose administered]” value (Day 1, 450 mg po (n = 10)) was 4.0% and the “Ae0-24 (amount excreted in urine)” value (Day 1, 450 mg po (n = 10), total dose 900 po) was 35.95 mg. For the same molecule, the “Urine Concentration, Mean” value [14] was 42710.0 ng/mL, the “Urine Concentration, Median” value [14] was 26250.0 ng/mL and the “Urine Concentration, Mean” value [15] was 30900.0 ng/mL. The “Urine Concentration, Median” value [15] was 26850.0 ng/mL, the “Urine Concentration, Mean” value [16] was 35988.9 ng/mL and the “Urine Concentration, Median” value [16] was 25700.0 ng/mL. The “Urine Concentration, Mean” value [17] was 26090.0 ng/mL, the “Urine Concentration, Median” value [17] was 28500.0 ng/mL and the “Urine Concentration, Mean” value [18] was 29111.1 ng/mL. For the same molecule, the “Urine Concentration, Median” value [18] was 18200.0 ng/mL, the “Urine Concentration, Mean” value [19] was 48117.0 ng/mL and the “Urine Concentration, Median” value [19] was 33700.0 ng/mL. The “Urine Concentration, Mean” value [20] was 33237.0 ng/mL, the “Urine Concentration, Median” value [20] was 14850.0 ng/mL and the “Urine Concentration, Mean” value [21] was 25350.0 ng/mL. The “Urine Concentration, Median” value [21] was 19600.0 ng/mL, the “Urine Concentration, Mean” value [22] was 30466.0 ng/mL and the “Urine Concentration, Median” value [22] was 20600.0 ng/mL. For the same molecule, the “Urine Concentration, Mean” value [23] was 21480.0 ng/mL, the “Urine Concentration, Median” value [23] was 12590.0 ng/mL and the “Urine Concentration, Mean” value [24] was 17940.0 ng/mL. For the same molecule, the “Urine Concentration, Median” value [24] was 16000.0 ng/mL, the “Urine Concentration, Mean” value [25] was 30280.0 ng/mL and the “Urine Concentration, Median” value [25] was 23400.0 ng/mL. The “fe0-24 [dose absorbed]” value [26] was 30.7%, the “fe0-24 [dose administered]” value [26] was 10.8% and the “Ae0-24 (amount excreted in urine)” value (Day 5, 200 mg IV, 300 mg po (n = 11), total dose 300 po) was 32.27 mg. The “fe0-24 [dose absorbed]” value (Day 5, 300 mg po (n = 10)) was 36.4%, the “fe0-24 [dose administered]” value (Day 5, 300 mg po (n = 10)) was 12.7% and the “Ae0-24 (amount excreted in urine)” value (Day 5, 300 mg po (n = 10), total dose 300 po) was 38.21 mg. For the same molecule, the “fe0-24 [dose absorbed]” value (Day 5, 450 mg po (n = 10)) was 34.8%, the “fe0-24 [dose administered]” value (Day 5, 450 mg po (n = 10)) was 12.2% and the “Ae0-24 (amount excreted in urine)” value (Day 5, 450 mg po (n = 10), total dose 450 po) was 54.87 mg. For the same molecule, the clearance (intravenous, 200 mg, Day 1, IV_PO300, read-out: Renal CL, Geo. Mean (converted)) was 33 mL/min, the clearance (intravenous, 200 mg, Day 1, IV_PO300, read-out: Renal CL, Mean (converted)) was 38.3 mL/min and the clearance (intravenous, 200 mg, Day 1, IV_PO300, read-out: Renal CL, Median (converted)) was 27.2 mL/min. The clearance (oral, 300 mg, Day 5, IV_PO300, read-out: Renal CL, Geo. Mean (converted)) was 63 mL/min, the clearance (oral, 300 mg, Day 5, IV_PO300, read-out: Renal CL, Mean (converted)) was 94.6 mL/min and the clearance (oral, 300 mg, Day 5, IV_PO300, read-out: Renal CL, Median (converted)) was 44 mL/min. The clearance (oral, 300 mg, Day 5, PO300, read-out: Renal CL, Geo. Mean (converted)) was 57.4 mL/min, the clearance (oral, 300 mg, Day 5, PO300, read-out: Renal CL, Mean (converted)) was 78.2 mL/min and the clearance (oral, 300 mg, Day 5, PO300, read-out: Renal CL, Median (converted)) was 58.6 mL/min. For the same molecule, the clearance (oral, 450 mg, Day 5, PO450, read-out: Renal CL, Geo. Mean (converted)) was 21.5 mL/min, the clearance (oral, 450 mg, Day 5, PO450, read-out: Renal CL, Mean (converted)) was 29.1 mL/min and the clearance (oral, 450 mg, Day 5, PO450, read-out: Renal CL, Median (converted)) was 27.8 mL/min. The “Ae 0-4 hrs, Geo. Mean” value (urine, Day 1, IV_PO300) was 11.59 mg, the “Ae 0-4 hrs, Mean” value (urine, Day 1, IV_PO300) was 13.80 mg and the “Ae 0-4 hrs, Median” value (urine, Day 1, IV_PO300) was 9.74 mg. For the same molecule, the “Ae 0-24 hrs, Geo. Mean” value (urine, Day 1, IV_PO300) was 36.98 mg, the “Ae 0-24 hrs, Median” value (urine, Day 1, IV_PO300) was 41.40 mg and the “Ae 4-8 hrs, Geo. Mean” value (urine, Day 1, IV_PO300) was 7.28 mg. The “Ae 4-8 hrs, Mean” value (urine, Day 1, IV_PO300) was 8.61 mg, the “Ae 4-8 hrs, Median” value (urine, Day 1, IV_PO300) was 7.96 mg and the “Ae 8-12 hrs, Geo. Mean” value (urine, Day 1, IV_PO300) was 5.53 mg. The “Ae 8-12 hrs, Mean” value (urine, Day 1, IV_PO300) was 6.80 mg, the “Ae 8-12 hrs, Median” value (urine, Day 1, IV_PO300) was 6.17 mg and the “Ae 12-24 hrs, Geo. Mean” value (urine, Day 1, IV_PO300) was 12.70 mg.
